In US10004713B2 (SICHUAN JIUZHANG BIOLOGICAL SCIENCE AND TECHNOLOGY CO., LTD, priority 2014, dated 2018):

Legend:
human brain glioma = test: Inhibitory effect of chlorogenic acid on transplanted glioma in mice (tumor weight); type: in vivo; settings: 15 d; for Tumor weight: x ± s
Procedure: (1) Model establishment 50 mice were divided into 5 groups, 10 mice for each group. The solution of brain glioblastoma cell lines was suitably diluted, and inoculated in cortex of left temporal lobe of mice in five groups, respectively.
(2) Administration and intervention After inoculated for 24 h, five groups of mice were administrated by intraperitoneal injection. […] (3) Measuring inhibitory rate On the last day, administration was ceased, and all mice were sacrificed. Mice were dissected, and tissue of tumor was removed and weighed. Inhibitory Rate=(the Mean Tumor Weight of Control Group−the Mean Tumor Weight of Treatment Group)/the Mean Tumor Weight of Control Group×100%. (4) Statistical method The data were presented as mean±standard deviation (x±s), and statistical analysis was performed using SPSS15.0 software, and p<0.05 was considered to be a statistically significant difference. 3. Results

C6 glioma stem cells = test: In vitro inhibitory effect against C6 glioma stem cells by MTT method; type: cell-based, rat; settings: 48 h; for OD values 1: replicate 1; for OD values 2: replicate 2; for OD values 3: replicate 3
Procedure: (§1) 3. Cell line: C6 rat glioma cell lines for experiment is provided by Key Laboratory of Transplant Engineering and Immunology, Ministry of health, West China Hospital, Sichuan University.
(1) C6 cells were seeded in traditional serum medium and sub-cultured in culture bottle. Cells in exponential phase of growth were washed with PBS solution, digested with 0.25% trypsin, and pipetted by self-made pasteur pipette, to form single cells. Cells were resuspended in SFM, stained with trypan blue, and counted. Cells were seeded in culture bottle with a bottom area of 25 cm^2 at a concentration of 1×10^5/well, and placed in an incubator at 37° C. with 5% CO2 and saturated humidity for culture.
The medium was sucked out and centrifuged before half of old medium was removed, then centrifuged at 800 rpm/min for 5 min. The supernatant was discarded. Cells are resuspended in SFM, and gentle pipette with self-made pasteur pipette was repeated, for dissociating cell dumps into single cells. In a ratio of 1:2 or 1:3, cells were seeded in culture bottles with a bottom area of 25 cm^2, and diluted with SFM to 6 ml; alternatively, at the same concentration, cells were seeded in 6 well plate. To each well, was added 2.5 ml SFM, and continued culturing in an incubator at 37° C. with 5% CO2 and saturated humidity.
(1) Cells, growing in serum-containing medium and serum-free medium and presenting exponential growth phase, were taken out, and digested with pancreatin, to form single cells. Tumor cells were still seeded in serum-containing medium, while tumor stem cells were seeded in serum-free medium. Their concentrations were both adjusted to 2.0×10^5/ml, and cells were seeded in 96 well plate, 100 μl for each well. […] Culture was carried out in an incubator at 37° C. with 5% CO2 and saturated humidity for one night. When seeding in 96 well plate, peripheral wells were not used to avoid the edge effect.
(§2) (2) Next day after inoculation, cells attached before administration was carried out and static culture was kept for 48 h.
(§3) (3) Wells for normal control group of tumor cells were included, and the wells were not treated with drug, and only equal amount (100 μl) of complete medium was added. Experiment on normal control group was performed, together with above three groups.
(§4) (4) The culture was continued under 5% CO2 at 37° C., and after culturing for 48 h, cells were placed under inverted microscope for observation and taking a picture.
(§5) (5) On sterile bench board, 20 μL 0.5% MTT was added to each well, and the culture was continued for 4 h. At 37° C., the culture was stood for overnight (same time for each group), then OD values were tested using microplate reader, while the absorbance of each well was measured at […].
(§6) (6) Calculating inhibitory rate of cell growth Formula: Inhibitory rate of cell growth IR (%)=1−(OD value of cells in experimental group/OD value of cells in control group)×100%. (III) Statistical Analysis

[1] = tested on: human brain oligodendroglioma cells; test: Inhibitory effect of chlorogenic acid on proliferation of primary culture human brain oligodendroglioma cells (MTT method / WST-1); type: cell-based; settings: 48 h
C6 glioma cells = test: In vitro inhibitory effect against C6 glioma cells by MTT method; type: cell-based, rat; settings: 48 h; for OD values 1: replicate 1; for OD values 2: replicate 2; for OD values 3: replicate 3
Procedure: as §1
(1) Cells, growing in serum-containing medium and serum-free medium and presenting exponential growth phase, were taken out, and digested with pancreatin, to form single cells. Tumor cells were still seeded in serum-containing medium, while tumor stem cells were seeded in serum-free medium. Their concentrations were both adjusted to 2.0×10^5/ml, and cells were seeded in 96 well plate, 100 μl for each well. Amongst, four groups were experimental groups, and one group was negative control; the medium without cells was used as blank control, and each group had five repeated wells. Culture was carried out in an incubator at 37° C. with 5% CO2 and saturated humidity for one night. When seeding in 96 well plate, peripheral wells were not used to avoid the edge effect.
as §2, §3, §4, §5, §6

[2] = Rattus norvegicus, 16 μg/ml, read-out: Inhibitory rate (%)
[3] = Rattus norvegicus, 32 μg/ml, read-out: Inhibitory rate (%)
[4] = Rattus norvegicus, 64 μg/ml, read-out: Inhibitory rate (%)
[5] = Rattus norvegicus, 128 μg/ml, read-out: Inhibitory rate (%)
[6] = High dose 40 mg/kg intraperitoneal
[7] = Low dose 10 mg/kg intraperitoneal

CC(=O)O[C@@]12CO[C@@H]1C[C@H](O)[C@@]1(C)C(=O)[C@H](O)C3=C(C)[C@@H](OC(=O)[C@H](O)[C@@H](NC(=O)OC(C)(C)C)c4ccccc4)C[C@@](O)([C@@H](OC(=O)c4ccccc4)[C@H]21)C3(C)C [Positive control group, docetaxel, reference compound]
Inhibitory rate (%) (human brain glioma; 5 mg/kg intraperitoneal): 73.3%
Tumor weight (human brain glioma; 5 mg/kg intraperitoneal): 0.389 ± 0.305 g

O=C(/C=C/c1ccc(O)c(O)c1)O[C@@H]1C[C@](O)(C(=O)O)C[C@@H](O)[C@H]1O [chlorogenic acid]
OD values mean (C6 glioma stem cells; 16 μg/ml): 1.715
OD values 1 (C6 glioma stem cells; 16 μg/ml): 1.713
OD values 2 (C6 glioma stem cells; 16 μg/ml): 1.700
OD values 3 (C6 glioma stem cells; 16 μg/ml): 1.731
OD values mean (C6 glioma stem cells; 32 μg/ml): 1.634
OD values 1 (C6 glioma stem cells; 32 μg/ml): 1.533
OD values 2 (C6 glioma stem cells; 32 μg/ml): 1.739
OD values 3 (C6 glioma stem cells; 32 μg/ml): 1.631
OD values mean (C6 glioma stem cells; 64 μg/ml): 1.378
OD values 1 (C6 glioma stem cells; 64 μg/ml): 1.367
OD values 2 (C6 glioma stem cells; 64 μg/ml): 1.358
OD values 3 (C6 glioma stem cells; 64 μg/ml): 1.410
OD values mean (C6 glioma stem cells; 128 μg/ml): 1.223
OD values 2 (C6 glioma stem cells; 128 μg/ml): 1.200
inhibition at 16 µg/mL (C6 glioma stem cells; [2]): 23.2%
inhibition at 32 µg/mL (C6 glioma stem cells; [3]): 26.8%
inhibition at 64 µg/mL (C6 glioma stem cells; [4]): 38.2%
inhibition at 128 µg/mL (C6 glioma stem cells; [5]): 45.2%
Inhibitory rate (%) (human brain glioma; [6]): 60.58%
Tumor weight (human brain glioma; [6]): 0.529 ± 0.168 g
Inhibitory rate (%) (human brain glioma; [7]): 48.51%
Tumor weight (human brain glioma; [7]): 0.690 ± 0.188 g
Inhibitory rate (%) (human brain glioma; Middle dose 20 mg/kg intraperitoneal): 69.92%
Cellular morphology under inverted microscope ([1]; compared with normal control group): obvious decrease of cell numbers
inhibition at 32 µg/mL ([1]; Homo sapiens, 32 μg/ml, read-out: Inhibitory rate (%)): 39.9%
inhibition at 64 µg/mL ([1]; Homo sapiens, 64 μg/ml, read-out: Inhibitory rate (%)): 44.9%
inhibition at 128 µg/mL ([1]; Homo sapiens, 128 μg/ml, read-out: Inhibitory rate (%)): 60.4%
OD values mean (C6 glioma cells; 16 μg/ml): 1.515
OD values 1 (C6 glioma cells; 16 μg/ml): 1.640
OD values 2 (C6 glioma cells; 16 μg/ml): 1.553
OD values 3 (C6 glioma cells; 16 μg/ml): 1.351
OD values mean (C6 glioma cells; 32 μg/ml): 1.472
OD values 1 (C6 glioma cells; 32 μg/ml): 1.558
OD values 2 (C6 glioma cells; 32 μg/ml): 1.573
OD values 3 (C6 glioma cells; 32 μg/ml): 1.286
OD values mean (C6 glioma cells; 64 μg/ml): 1.326
OD values 1 (C6 glioma cells; 64 μg/ml): 1.314
OD values 2 (C6 glioma cells; 64 μg/ml): 1.247
OD values 3 (C6 glioma cells; 64 μg/ml): 1.417
OD values mean (C6 glioma cells; 128 μg/ml): 1.028
OD values 1 (C6 glioma cells; 128 μg/ml): 1.021
OD values 2 (C6 glioma cells; 128 μg/ml): 1.023
OD values 3 (C6 glioma cells; 128 μg/ml): 1.041
inhibition at 16 µg/mL (C6 glioma cells; [2]): 32.1%
inhibition at 32 µg/mL (C6 glioma cells; [3]): 34%
inhibition at 64 µg/mL (C6 glioma cells; [4]): 40.6%
inhibition at 128 µg/mL (C6 glioma cells; [5]): 53.9%
